In ChEMBL document CHEMBL3886244, “Benzoxazole- and tetrahydrobenzoxazole-substituted pyridazinones as GPR119 agonists” (2014):

Target: T1, Glucose-dependent insulinotropic receptor (Homo sapiens, UniProt Q8TDV5)
T1 sequence (Q8TDV5 whole entry): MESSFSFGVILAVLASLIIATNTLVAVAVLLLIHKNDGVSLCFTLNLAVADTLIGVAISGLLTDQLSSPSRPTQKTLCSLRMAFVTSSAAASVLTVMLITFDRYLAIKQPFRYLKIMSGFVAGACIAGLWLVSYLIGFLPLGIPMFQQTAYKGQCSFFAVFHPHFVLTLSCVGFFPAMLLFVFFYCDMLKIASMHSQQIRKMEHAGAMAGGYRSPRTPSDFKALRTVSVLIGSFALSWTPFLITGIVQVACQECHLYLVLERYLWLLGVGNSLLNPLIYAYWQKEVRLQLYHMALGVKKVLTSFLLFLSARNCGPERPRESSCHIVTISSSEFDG
Assay: AlphaScreen cAMP Assay: MIN6 cells [Miyazaki J et al. Endocrinology. 1990 July; 127(1):126-32] were stably transfected with an expression vector for human GPR119 cDNA (Acc. No. NP-848566). Min-6/hGPR119 cells are cultured in DMEM, 10% FBS, 50 uM beta-mercaptoethanol, 0.3 mg/mL Geniticin, 2 mM GlutaMAX at 37 C. 5% CO2. For the assay, the cells are placed in Optiplates (white, 384-well, 160W-barcoded, TC, sterile with lid, Cat. No. #6007688 (Perkin Elmer); 10000 cells/well; 50 ul). The plates covered with lids are then incubated for 24 hours at 37 C./5% CO2.After the medium has been sucked out of the wells completely, 10 ul of the test compound are added, the compounds are diluted beforehand with stimulating buffer (140 mM NaCl, 3.6 mM KCl, 0.5 mM NaH2PO4, 0.5 mM MgSO4, 1.5 mM CaCl2, 10 mM Hepes, 5 mM NaHCO3; pH 7.4. 0.5 mM IBMX and 0.1% BSA, the final DMSO concentration is 1%). After 45 minutes' incubation at RT, the cAMP concentrations are determined using the AlphaScreen cAMP Assay.
Type: functional, cell-based

| SMILES | EC50 [µM] |
| --- | --- |
| CC[C@H]1CC(=O)NN=C1c1ccc2nc(-c3ccccc3)oc2c1 | > 10 |
| CCOc1ccc(-c2nc3ccc(C4=NNC(=O)CC4CC)cc3o2)cc1 (stereo not drawn) | 0.114 |
| CC1CC(=O)NN=C1c1ccc2nc(-c3ccsc3)oc2c1 (stereo not drawn) | 0.267 |
